Data on 8 compounds can be found in ChEMBL document CHEMBL4052736, “Synthesis, antioxidant, antifungal, molecular docking and ADMET studies of some thiazolyl hydrazones” (Bioorg Med Chem Lett, 2017).

In brackets after ≈: the same amount, converted by molar mass.

What all share (type): functional
Assay [1] can be described thus: Antioxidant activity assessed as DPPH free radical scavenging activity at 20 ug/ml after 15 mins by spectrophotometric method.
The nature of assay [2]: Antioxidant activity assessed as DPPH free radical scavenging activity at 40 ug/ml after 15 mins by spectrophotometric method. (In general: The DPPH test is a chemical assay of radical scavenging.)
Assay [3] in a line: Antioxidant activity assessed as DPPH free radical scavenging activity at 60 ug/ml after 15 mins by spectrophotometric method.
The nature of assay [4]: Antioxidant activity assessed as DPPH free radical scavenging activity at 80 ug/ml after 15 mins by spectrophotometric method.
A short description of assay [5]: Antioxidant activity assessed as DPPH free radical scavenging activity at 100 ug/ml after 15 mins by spectrophotometric method.
The nature of assay [6]: Antioxidant activity assessed as DPPH free radical scavenging activity measured after 15 mins by spectrophotometric method.
Assay [7] can be described thus: Antioxidant activity assessed as H2O2 free radical scavenging activity at 20 ug/ml after 10 to 15 mins by spectrophotometric analysis.
A short description of assay [8]: Antioxidant activity assessed as H2O2 free radical scavenging activity at 40 ug/ml after 10 to 15 mins by spectrophotometric analysis.
Assay [9] in a line: Antioxidant activity assessed as H2O2 free radical scavenging activity at 60 ug/ml after 10 to 15 mins by spectrophotometric analysis.
A short description of assay [10]: Antioxidant activity assessed as H2O2 free radical scavenging activity at 80 ug/ml after 10 to 15 mins by spectrophotometric analysis.
Assay [11] can be described thus: Antioxidant activity assessed as H2O2 free radical scavenging activity at 100 ug/ml after 10 to 15 mins by spectrophotometric analysis.
Assay [12] can be described thus: Antioxidant activity assessed as H2O2 free radical scavenging activity by spectrophotometric analysis.
For assay [13], the system named is Candida albicans. Put plainly: Antifungal activity against Candida albicans after 24 hrs by well diffusion method. For orientation: Agar diffusion results depend on both activity and mobility in agar.
Assay [14] deals with Aspergillus flavus. Put plainly: Antifungal activity against Aspergillus flavus assessed as zone of inhibition at 25 ug/ml measured after 24 hrs by well diffusion method. The note with it: read-out: IZ.
The subject of assay [15] is Aspergillus flavus. Put plainly: Antifungal activity against Aspergillus flavus assessed as zone of inhibition at 50 ug/ml measured after 24 hrs by well diffusion method. The note with it: read-out: IZ.
Assay [16] relates to Aspergillus niger. Put plainly: Antifungal activity against Aspergillus niger assessed as zone of inhibition at 25 ug/ml measured after 24 hrs by well diffusion method. To be noted: read-out: IZ.
The test system of assay [17] is Aspergillus niger. The assay can be described thus: Antifungal activity against Aspergillus niger assessed as zone of inhibition at 50 ug/ml measured after 24 hrs by well diffusion method. The note with it: read-out: IZ.
The subject of assay [18] is Aspergillus niger. The assay can be described thus: Antifungal activity against Aspergillus niger assessed as zone of inhibition at 100 ug/ml measured after 24 hrs by well diffusion method. To be noted: read-out: IZ.
The test system of assay [19] is Candida albicans. The assay can be described thus: Antifungal activity against Candida albicans assessed as zone of inhibition at 100 ug/ml measured after 24 hrs by well diffusion method. The note with it: read-out: IZ.
The subject of assay [20] is Candida albicans. The assay can be described thus: Antifungal activity against Candida albicans assessed as zone of inhibition at 50 ug/ml measured after 24 hrs by well diffusion method. To be noted: read-out: IZ.
For assay [21], the system named is Candida albicans. Put plainly: Antifungal activity against Candida albicans assessed as zone of inhibition at 25 ug/ml measured after 24 hrs by well diffusion method. The note with it: read-out: IZ.
The subject of assay [22] is Aspergillus flavus. Put plainly: Antifungal activity against Aspergillus flavus assessed as zone of inhibition at 100 ug/ml measured after 24 hrs by well diffusion method. To be noted: read-out: IZ.
Assay [23] has as its system Aspergillus flavus. Put plainly: Antifungal activity against Aspergillus flavus after 24 hrs by well diffusion method.

`O=C1O[C@H]([C@@H](O)CO)C(O)=C1O` [ASCORBIC ACID]: the inhibition in assay [1] is 93.4%; in [2] it was 94.6%; in assay [3] it was 95.5%; in assay [4] it was 96%; in assay [5] it was 97%; in [7] it was 93.4%. Besides, the inhibition in [8] stood at 94.6%; in assay [9], 95.5%; in assay [10], 96%; in [11], 97%. In addition, the IC50 in assay [6] and in assay [12] was 26.771 µg/mL (≈ 152 µM) throughout.
On to `COc1ccc(-c2csc(N/N=C/c3ccc(Cl)cc3Cl)n2)cc1`, for which 25 µg/mL (≈ 66.1 µM) was the least that counted as inhibitory with Candida albicans [13] (MIC). In addition, the zone of inhibition at 25 µg/mL in the assay on Aspergillus flavus [14], in the assay on Aspergillus niger [16] and in the assay with Candida albicans [21] was 6 mm in each case. For the same compound, the zone of inhibition at 50 µg/mL in the assay on Aspergillus flavus [15], with Aspergillus niger [17] and in the assay with Candida albicans [20] was 6 mm in each case. Besides, the inhibition came out at 65.5% in [1]; 69.5% in [2]; 86.9% in [3]; 90.6% in [4]; 93.3% in assay [5]; 78.1% in [7]. The inhibition in assay [8] worked out at 79.7%; in assay [9], 82.8%; in assay [10], 84.2%; in assay [11], 87.5%. In addition, the results for the IC50 in [6] and in [12] were 34.966 µg/mL (≈ 92.4 µM) and 40.405 µg/mL (≈ 107 µM), respectively. In addition, the zone of inhibition at 100 µg/mL with Aspergillus niger [18] came to 6 mm; in the assay on Candida albicans [19], 7 mm; with Aspergillus flavus [22], 6 mm.
On to `Cc1ccc(-c2csc(N/N=C/c3cccs3)n2)cc1`, for which, in the assay with Candida albicans [13], the MIC worked out at 6.25 µg/mL (≈ 20.9 µM). Further, the zone of inhibition at 25 µg/mL in the assay on Aspergillus flavus [14] is 6 mm; in the assay on Aspergillus niger [16], 6 mm; with Candida albicans [21] it was 13 mm. For the same compound, the zone of inhibition at 50 µg/mL was 6 mm with Aspergillus flavus [15], 6 mm in the assay with Aspergillus niger [17] and 14 mm in the assay with Candida albicans [20]. Besides, the inhibition in assay [1] was found to be 90.9%; in assay [2], 97%; in assay [3], 97.6%; in assay [4] it was 97.8%; in assay [5] it was 98.1%; in assay [7], 79.6%. Also, the inhibition in assay [8] was found to be 82.8%; in assay [9], 84.4%; in assay [10], 88.4%; in assay [11], 91%. In addition, the IC50 in [6] worked out at 29.837 µg/mL (≈ 99.6 µM); in assay [12], 35.933 µg/mL (≈ 120 µM). Further, the zone of inhibition at 100 µg/mL was determined as 6 mm with Aspergillus niger [18], 15 mm in the assay on Candida albicans [19] and 6 mm in the assay with Aspergillus flavus [22].
Consider `O=C(O)Cc1ccccc1Nc1c(Cl)cccc1Cl`, for which the inhibition in assay [1] is 97.1%.
For `Clc1ccc(-c2csc(N/N=C/c3cccs3)n2)cc1`, the figures for the MIC against Aspergillus flavus [23] and in the assay with Candida albicans [13] were 12.5 µg/mL (≈ 39.1 µM) and 6.25 µg/mL (≈ 19.5 µM), respectively. Besides, the zone of inhibition at 25 µg/mL was determined as 8 mm in the assay with Aspergillus flavus [14], 6 mm with Aspergillus niger [16] and 11 mm in the assay with Candida albicans [21]. For the same compound, the zone of inhibition at 50 µg/mL amounted to 17 mm with Aspergillus flavus [15], 6 mm in the assay on Aspergillus niger [17] and 14 mm in the assay with Candida albicans [20]. Besides, the inhibition came out at 94.4% in assay [1]; 96% in assay [2]; 96.1% in assay [3]; 96.6% in assay [4]; 97% in [5]; 82.8% in assay [7]. Also, the inhibition was 83.2% in assay [8], 85.2% in assay [9], 86% in assay [10] and 87.1% in [11]. Further, the IC50 in assay [6] was 26.335 µg/mL (≈ 82.3 µM); in [12], 39.58 µg/mL (≈ 124 µM). Besides, the zone of inhibition at 100 µg/mL was 8 mm with Aspergillus niger [18], 18 mm in the assay with Candida albicans [19] and 20 mm with Aspergillus flavus [22].
In the case of `COC(=O)c1cc(-c2csc(N/N=C/c3ccc(Cl)cc3Cl)n2)ccc1OCc1ccccc1`, the MIC in the assay with Candida albicans [13] was 6.25 µg/mL (≈ 12.2 µM). For the same compound, the values for the zone of inhibition at 25 µg/mL in the assay on Aspergillus flavus [14], in the assay with Aspergillus niger [16] and in the assay with Candida albicans [21] were 6 mm, 6 mm and 12 mm, respectively. For the same compound, the zone of inhibition at 50 µg/mL in the assay on Aspergillus flavus [15] was 6 mm; with Aspergillus niger [17], 6 mm; in the assay with Candida albicans [20], 10 mm. Further, the inhibition in assay [1] is 19.2%; in [2], 37.2%; in assay [3], 41.9%; in [4], 45.5%; in assay [5], 56.1%; in assay [7], 58.9%. For the same compound, the inhibition was 63.5% in [8], 66.3% in [9], 71.8% in assay [10] and 75% in [11]. Besides, the IC50 in assay [6] came to 88.844 µg/mL (≈ 173 µM); in [12], 57.873 µg/mL (≈ 113 µM). Besides, the zone of inhibition at 100 µg/mL in the assay with Aspergillus niger [18] turned out to be 6 mm; in the assay with Candida albicans [19], 13 mm; in the assay on Aspergillus flavus [22], 14 mm.
Take `Cc1ccc(-c2csc(N/N=C/c3ccc(Cl)cc3Cl)n2)cc1`: the MIC in the assay on Aspergillus flavus [23] and with Candida albicans [13] was 25 µg/mL (≈ 69 µM) in each case. In addition, the zone of inhibition at 25 µg/mL with Aspergillus flavus [14], with Aspergillus niger [16] and in the assay on Candida albicans [21] was 6 mm each time. Also, the values for the zone of inhibition at 50 µg/mL with Aspergillus flavus [15], with Aspergillus niger [17] and in the assay with Candida albicans [20] were 10 mm, 6 mm and 6 mm, respectively. The inhibition in assay [1] is 86%; in assay [2], 86.2%; in assay [3], 93.3%; in assay [4] it was 90.7%; in assay [5], 95.1%; in assay [7], 76.2%. The inhibition in [8] came to 80.4%; in assay [9], 83.2%; in [10], 84.2%; in assay [11] it was 85.3%. Moreover, the IC50 turned out to be 30.791 µg/mL (≈ 85 µM) in assay [6] and 40.004 µg/mL (≈ 110 µM) in assay [12]. Further, the zone of inhibition at 100 µg/mL was 6 mm with Aspergillus niger [18], 8 mm in the assay with Candida albicans [19] and 16 mm in the assay on Aspergillus flavus [22].
Take `COC(=O)c1cc(-c2csc(N/N=C/c3cccs3)n2)ccc1OCc1ccccc1`: the MIC against Candida albicans [13] turned out to be 25 µg/mL (≈ 55.6 µM). Also, the zone of inhibition at 25 µg/mL in the assay with Aspergillus flavus [14], with Aspergillus niger [16] and in the assay with Candida albicans [21] was 6 mm each time. The zone of inhibition at 50 µg/mL in the assay with Aspergillus flavus [15] is 6 mm; in the assay with Aspergillus niger [17], 6 mm; in the assay on Candida albicans [20], 8 mm. Further, the inhibition in assay [1] stood at 94.3%; in assay [2], 94.9%; in assay [3], 95.5%; in assay [4], 96%; in [5], 96.3%; in assay [7], 79.6%. Also, the inhibition in [8] was 82.8%; in assay [9], 84.4%; in assay [10], 87.6%; in assay [11], 92.4%. Also, the IC50 in [6] turned out to be 28.131 µg/mL (≈ 62.6 µM); in [12], 29.212 µg/mL (≈ 65 µM). Further, the results for the zone of inhibition at 100 µg/mL in the assay on Aspergillus niger [18], in the assay on Candida albicans [19] and in the assay on Aspergillus flavus [22] were 6 mm, 10 mm and 6 mm, respectively.

The term inhibition denotes the share of the control response that was lost under treatment. In general, IC50 refers to the point on the concentration scale where inhibition reaches its midpoint. As usually defined, the MIC is the lowest concentration found to suppress growth.
